In ChEMBL document CHEMBL4359816, “Discovery and Optimization of Quinolinone Derivatives as Potent, Selective, and Orally Bioavailable Mutant Isocitrate Dehydrogenase 1 (mIDH1) Inhibitors” (J Med Chem, 2019):
Values after ≈ are worked out from the molar mass of the structure shown.

Columns and labels:
[1] = Octanol/aqueous buffer partition coefficient, log D of the compound at pH 7.4; format: physicochemical
[2] = target: T1, Isocitrate dehydrogenase [NADP] cytoplasmic (Homo sapiens, UniProt O75874, R132C); test: Inhibition of human Myc-DDK-tagged IDH1 R132C mutant assessed as reduction in NADPH consumption pre-incubated for 15 mins followed by alpha-ketoglutarate substrate and NADPH addition after 45 mins by diaphorase and resazurin dye based assay
T1 sequence (O75874 2-414 R132C limits assumed): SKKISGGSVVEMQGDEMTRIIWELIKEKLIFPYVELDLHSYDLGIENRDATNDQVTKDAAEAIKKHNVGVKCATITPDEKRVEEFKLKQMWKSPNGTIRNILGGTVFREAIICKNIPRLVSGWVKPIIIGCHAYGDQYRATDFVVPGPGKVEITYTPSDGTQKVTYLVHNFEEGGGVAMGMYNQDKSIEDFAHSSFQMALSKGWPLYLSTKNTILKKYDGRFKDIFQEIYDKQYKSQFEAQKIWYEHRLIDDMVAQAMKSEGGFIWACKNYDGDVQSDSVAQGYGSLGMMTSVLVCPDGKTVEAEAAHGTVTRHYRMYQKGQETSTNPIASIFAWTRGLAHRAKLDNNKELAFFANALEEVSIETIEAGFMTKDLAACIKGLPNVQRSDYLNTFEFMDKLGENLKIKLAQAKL

[3] = target: T1, Isocitrate dehydrogenase [NADP] cytoplasmic; test: Inhibition of IDH1 R132C mutant in human HCT116 cells assessed as reduction in 2-HG levels after 24 hrs by RapidFire high-throughput mass spectrometry assay; format: cell-based
[4] = Metabolic stability in human liver microsomes assessed as compound remaining after 30 mins; format: ADME, Microsome; details: read-out: Stability
[5] = Kinetic solubility of the compound; format: physicochemical; details: read-out: Kinetic_solubility
[6] = Metabolic stability in mouse liver microsomes assessed as compound remaining after 30 mins; format: ADME, Microsome; details: read-out: Stability
[7] = Metabolic stability in rat liver microsomes assessed as compound remaining after 30 mins; format: ADME, Microsome; details: read-out: Stability
[8] = target: T1, Isocitrate dehydrogenase [NADP] cytoplasmic; test: Inhibition of human Myc-DDK-tagged IDH1 R132C mutant expressed in human U87MG cells assessed as reduction in 2-HG levels after 24 hrs by RapidFire high-throughput mass spectrometry assay; format: cell-based
[9] = Half-life in BALB/c mouse at 5 mg/kg, po measured up to 24 hrs; format: ADME, organism-based; details: in vivo
Homo sapiens = species on record: Homo sapiens; format: cell-based
[10] = Total Cmax in BALB/c mouse at 5 mg/kg, po after 1 hr; format: ADME, organism-based; design: dose 5 mg/kg, route oral; details: in vivo
[11] = AUC (0 to 8 hrs) in BALB/c mouse at 5 mg/kg, po measured up to 24 hrs; format: ADME, organism-based; design: dose 5 mg/kg, time < 8 hr, route oral; details: in vivo
[12] = target: Isocitrate dehydrogenase [NADP] cytoplasmic (Homo sapiens, UniProt O75874); test: Inhibition of wild-type IDH1 (unknown origin) by NADPH fluorescence based assay
Chain of Isocitrate dehydrogenase [NADP] cytoplasmic (Homo sapiens, UniProt O75874) (O75874 whole entry): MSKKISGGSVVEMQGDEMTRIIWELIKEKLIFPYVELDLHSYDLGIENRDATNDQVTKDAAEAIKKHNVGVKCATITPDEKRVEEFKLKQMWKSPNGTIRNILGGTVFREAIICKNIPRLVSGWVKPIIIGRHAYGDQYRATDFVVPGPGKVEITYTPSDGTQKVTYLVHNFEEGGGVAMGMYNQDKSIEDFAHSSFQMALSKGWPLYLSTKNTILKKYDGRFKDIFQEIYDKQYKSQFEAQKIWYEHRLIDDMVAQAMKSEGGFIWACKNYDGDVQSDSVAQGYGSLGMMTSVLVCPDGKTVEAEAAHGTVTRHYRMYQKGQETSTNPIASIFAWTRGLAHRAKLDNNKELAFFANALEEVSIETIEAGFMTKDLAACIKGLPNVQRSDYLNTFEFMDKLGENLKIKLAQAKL

[13] = Total plasma concentration in BALB/c mouse at 5 mg/kg, po at 4 hrs; format: ADME, organism-based
MDR1 (P-gp) = test: Efflux ratio of apparent permeability from basolateral side to apical side over apical side to basolateral side in MDCK cells harboring MDR1 (unknown origin) at 10 uM incubated for 2 hrs by LC-MS/MS analysis; format: ADME, cell-based, Canis lupus familiaris; details: dog
[14] = target: Isocitrate dehydrogenase [NADP] cytoplasmic (Homo sapiens, UniProt O75874, R132G); test: Inhibition of human Myc-DDK-tagged IDH1 R132G mutant expressed in human U87MG cells assessed as reduction in 2-HG levels after 24 hrs by RapidFire high-throughput mass spectrometry assay; format: cell-based
Chain of Isocitrate dehydrogenase [NADP] cytoplasmic (Homo sapiens, UniProt O75874, R132G) (O75874 2-414 R132G limits assumed): as the sequence (O75874 2-414 R132C limits assumed) above, with C131G counted along it

[15] = Total Cmax in mouse at 1 mg/kg, iv or 5 mg/kg, po; format: ADME, organism-based; details: in vivo
[16] = fAUC (infinity) in mouse at 1 mg/kg, iv or 5 mg/kg, po; format: ADME, organism-based; details: in vivo
[17] = Total AUC (infinity) in rat at 1 mg/kg, iv or 5 mg/kg, po; format: ADME, organism-based; details: in vivo
[18] = Half-life in mouse at 1 mg/kg, iv or 5 mg/kg, po; format: ADME, organism-based; details: in vivo
[19] = Protein binding in mouse plasma; format: ADME, cell-free; details: read-out: PPB (converted)
[20] = Protein binding in rat plasma; format: ADME, cell-free; details: read-out: PPB (converted)
[21] = Apparent permeability of the compound across basolateral side to apical side in human Caco2 cells; format: ADME, cell-based; details: Caco-2
[22] = Half-life in human hepatocytes; format: ADME, cell-based, Hepatocyte
[23] = Total AUC (infinity) in mouse at 1 mg/kg, iv or 5 mg/kg, po; format: ADME, organism-based; details: in vivo
[24] = Half-life in rat at 1 mg/kg, iv or 5 mg/kg, po; format: ADME, organism-based; details: in vivo
[25] = Intrinsic clearance in human hepatocytes; format: ADME, cell-based, Hepatocyte; details: read-out: CLH
[26] = Clearance in mouse at 1 mg/kg, iv or 5 mg/kg, po; format: ADME, organism-based; details: in vivo
[27] = Total AUC (infinity) in dog at 0.5 mg/kg, iv; format: ADME, organism-based, Canis lupus familiaris; design: dose 0.5 mg/kg, time AUCmax, route intravenous; details: in vivo
[28] = Efflux ratio of apparent permeability from basolateral side to apical side over apical side to basolateral side in human Caco2 cells; format: ADME, cell-based; details: Caco-2
[29] = fAUC (infinity) in dog at 0.5 mg/kg, iv; format: ADME, organism-based, Canis lupus familiaris; details: in vivo
[30] = target: Isocitrate dehydrogenase [NADP] cytoplasmic (Homo sapiens, UniProt O75874, R132S); test: Inhibition of human Myc-DDK-tagged IDH1 R132S mutant expressed in human U87MG cells assessed as reduction in 2-HG levels after 24 hrs by RapidFire high-throughput mass spectrometry assay; format: cell-based
Chain of Isocitrate dehydrogenase [NADP] cytoplasmic (Homo sapiens, UniProt O75874, R132S) (O75874 2-414 R132S limits assumed): as the sequence (O75874 2-414 R132C limits assumed) above, with C131S counted along it

[31] = Protein binding in human plasma; format: ADME, cell-free; details: read-out: PPB (converted)
[32] = Protein binding in dog plasma; format: ADME, cell-free, Canis lupus familiaris; details: read-out: PPB (converted)
[33] = Permeability of the compound by PAMPA; format: ADME; details: read-out: permeability
[34] = Apparent permeability of the compound across apical side to basolateral side in human Caco2 cells; format: ADME, cell-based; details: Caco-2
[35] = Oral bioavailability in mouse at 5 mg/kg; format: ADME, organism-based; details: in vivo
[36] = Clearance in rat at 1 mg/kg, iv or 5 mg/kg, po; format: ADME, organism-based; details: in vivo
[37] = Half-life in dog at 0.5 mg/kg, iv; format: ADME, organism-based, Canis lupus familiaris; details: in vivo
[38] = Cmax in rat at 1 mg/kg, iv or 5 mg/kg, po; format: ADME, organism-based; details: in vivo
[39] = fAUC (infinity) in rat at 1 mg/kg, iv or 5 mg/kg, po; format: ADME, organism-based; details: in vivo
[40] = target: Isocitrate dehydrogenase [NADP] cytoplasmic (Homo sapiens, UniProt O75874, R132L); test: Inhibition of human Myc-DDK-tagged IDH1 R132L mutant expressed in human U87MG cells assessed as reduction in 2-HG levels after 24 hrs by RapidFire high-throughput mass spectrometry assay; format: cell-based
Chain of Isocitrate dehydrogenase [NADP] cytoplasmic (Homo sapiens, UniProt O75874, R132L) (O75874 2-414 R132L limits assumed): as the sequence (O75874 2-414 R132C limits assumed) above, with C131L counted along it

[41] = Clearance in dog at 0.5 mg/kg, iv; format: ADME, organism-based, Canis lupus familiaris; details: in vivo
[42] = Oral bioavailability in rat at 5 mg/kg; format: ADME, organism-based; details: in vivo

Structure (SMILES): Cc1nc(N[C@@H](C)c2cc3cc(Cl)ccc3[nH]c2=O)ccc1C#N
- logD [1]: 3.74
- IC50 [2]: 183 nM
- IC50 [3]: 269 nM
- remaining at 0.5 h [4]: 98%
- solubility kinetic [5]: 5.7 µM (≈ 1.93 µg/mL)
- remaining at 0.5 h [6]: 94%

Structure (SMILES): COc1nc(N[C@@H](C)c2cc3cc(Cl)c(OCc4ccccn4)cc3[nH]c2=O)ncc1C#N
- IC50 [2]: 43 nM
- IC50 [3]: 22 nM
- remaining at 0.5 h [4]: 97%
- remaining at 0.5 h [7]: 77%
- solubility kinetic [5]: 1.5 µM (≈ 0.694 µg/mL)

Structure (SMILES): COc1nc(N[C@@H](C)c2cc3cc(Cl)c(OC(C)C)cc3[nH]c2=O)ncc1C#N
- IC50 [2]: 26 nM
- IC50 [3]: 104 nM
- remaining at 0.5 h [4]: 100%
- remaining at 0.5 h [7]: 90%
- solubility kinetic [5]: 0.43 µM (≈ 0.178 µg/mL)

Structure (SMILES): COc1cc(NCc2cc3cc(Cl)ccc3[nH]c2=O)ccc1C#N
- IC50 [8]: 1250 nM
- half-life [9]: 1.27 h
- IC50 [2]: 2250 nM
- IC50 [3]: 1920 nM
- remaining at 0.5 h [4]: 81%
- Ratio IC50 (Homo sapiens): 4
- Cmax [10]: 1060 nM
- AUC(0-t) at 8 h [11]: 2.45 µM·h
- IC50 [12]: 100000 nM
- solubility kinetic [5]: 0.43 µM (≈ 0.146 µg/mL)
- remaining at 0.5 h [6]: 42%
- concentration at 4 h [13]: 100 nM

Structure (SMILES): COc1nc(N[C@@H](C)c2cc3cc(Cl)c(F)cc3[nH]c2=O)ncc1C#N
- IC50 [2]: 184 nM
- IC50 [3]: 259 nM
- remaining at 0.5 h [4]: 89%
- remaining at 0.5 h [7]: 100%
- solubility kinetic [5]: 1.2 µM (≈ 0.449 µg/mL)

Structure (SMILES): Cc1nc(NCc2cc3cc(Cl)ccc3[nH]c2=O)ccc1C#N
- IC50 [8]: 258 nM
- half-life [9]: 3.57 h
- IC50 [2]: 820 nM
- IC50 [3]: 3210 nM
- remaining at 0.5 h [4]: 84%
- Cmax [10]: 480 nM
- AUC(0-t) at 8 h [11]: 2.66 µM·h
- IC50 [12]: 75000 nM
- solubility kinetic [5]: 0.64 µM (≈ 0.208 µg/mL)
- remaining at 0.5 h [6]: 69%

Structure (SMILES): N#Cc1ccnc(N2C(=O)CC[C@H]2C(=O)N(c2cncc(F)c2)[C@H](C(=O)NC2CC(F)(F)C2)c2ccccc2Cl)c1 [IVOSIDENIB]
- efflux ratio at 2 h, 10 µM (MDR1 (P-gp)): > 350

Structure (SMILES): COc1nc(N[C@@H](C)c2cc3cc(Cl)c(C4CC4)cc3[nH]c2=O)ncc1C#N
- IC50 [2]: 305 nM
- IC50 [3]: 195 nM
- remaining at 0.5 h [4]: 93%
- remaining at 0.5 h [7]: 68%
- solubility kinetic [5]: 0.4 µM (≈ 0.158 µg/mL)

Structure (SMILES): COc1cc(N[C@@H](C)c2cc3cc(Cl)ccc3[nH]c2=O)ccc1C#N
- logD [1]: 3.67
- IC50 [2]: 111 nM
- IC50 [3]: 213 nM
- remaining at 0.5 h [4]: 75%
- solubility kinetic [5]: 4.1 µM (≈ 1.45 µg/mL)
- remaining at 0.5 h [6]: 71%

Structure (SMILES): COc1cc(N[C@@H](C)c2cc3cc(Cl)ccc3[nH]c2=O)ncc1C#N
- logD [1]: 3.38
- remaining at 0.5 h [4]: 100%
- solubility kinetic [5]: 15.6 µM (≈ 5.53 µg/mL)
- remaining at 0.5 h [6]: 100%

Structure (SMILES): COc1nc(C#N)ccc1N[C@@H](C)c1cc2cc(Cl)ccc2[nH]c1=O
- logD [1]: 2.5
- IC50 [2]: 1020 nM
- IC50 [3]: 338 nM
- remaining at 0.5 h [4]: 100%
- solubility kinetic [5]: 4.8 µM (≈ 1.7 µg/mL)
- remaining at 0.5 h [6]: 60%

Structure (SMILES): COc1cc2[nH]c(=O)c([C@H](C)Nc3ncc(C#N)c(OC)n3)cc2cc1Cl
- logD [1]: 2.74
- IC50 [14]: 3 nM
- Cmax [15]: 5200 nM
- IC50 [8]: 4 nM
- fAUC [16]: 0.178 µM·h
- IC50 [2]: 36 nM
- AUC(0-inf) [17]: 10.7 µM·h
- half-life [18]: 3.5 h
- fraction unbound [19]: 0.0083
- fraction unbound [20]: 0.0045
- Papp B→A [21]: 9.47 ×10⁻⁶ cm/s
- IC50 [3]: 40 nM
- remaining at 0.5 h [4]: 97%
- half-life [22]: 3.07 h
- remaining at 0.5 h [7]: 88%
- AUC(0-inf) [23]: 21.5 µM·h
- half-life [24]: 2.6 h
- CLint scaled [25]: 19.1 mL/min/kg
- clearance [26]: 8.5 mL/min/kg
- AUC(0-inf) [27]: 5.8 µM·h
- efflux ratio [28]: 1.65
- fAUC [29]: 0.132 µM·h
- IC50 [30]: 129 nM
- fraction unbound [31]: 0.0144
- solubility kinetic [5]: 5.7 µM (≈ 2.2 µg/mL)
- fraction unbound [32]: 0.0228
- Papp [33]: 12.7 ×10⁻⁶ cm/s
- Papp A→B [34]: 5.73 ×10⁻⁶ cm/s
- bioavailability [35]: 85%
- clearance [36]: 16.4 mL/min/kg
- half-life [37]: 6.2 h
- Cmax [38]: 1900 nM
- fAUC [39]: 0.043 µM·h
- IC50 [40]: 5 nM
- clearance [41]: 4.3 mL/min/kg
- bioavailability [42]: 75%

Structure (SMILES): COc1nc(N[C@@H](C)c2cc3cc(Cl)ccc3[nH]c2=O)ccc1C#N
- logD [1]: 3.47
- IC50 [2]: 190 nM
- IC50 [3]: 92 nM
- remaining at 0.5 h [4]: 82%
- solubility kinetic [5]: 0.08 µM (≈ 0.0284 µg/mL)
